“Also recorded” adds a separate entry of the source. Like-named read-outs stand apart in the source and are kept apart here.
How the values were obtained:
[1] = test system: Uba1-overexpressing HEK 293 cells; assay: Cell survival in Uba1-overexpressing cells vs empty vector-transfected control cells; format: cell-based, human; conditions: 24-h treatment at IC50 of each compound (Myr 3 mM, DM 650 μM; puromycin 1 and 2 μM)
Protocol: (§1) HEK 293FT cells were evaluated for survival following compound treatments by the Alamar Blue (resazurin) assay. Cells were plated onto 96-well plates at 4.8 × 10^4 cells/well in 0.5% FBS-containing DMEM at 37 °C and 5% CO2. After 24 h, compounds were added. After 24-h treatment, resazurin was added to a final concentration of 0.12 mM. Following 4-h incubation, conversion to the resorufin product was measured (with excitation at 542 nm and emission at 590 nm) on a fluorescence plate reader.
(§2) HEK 293FT cells (1.5 × 10^6) were plated onto 6-cm plates in 5 ml of DMEM with 10% FBS and allowed to grow for 24 h at 37 °C and 5% CO2. For transfections, 6 μg of plasmid DNA (empty vector containing FLAG-tag sequence only, FLAG-Uba1, or FLAG-ubiquitin) and 10 μl of Lipofectamine 2000 were used for each plate. The DNA and the reagent were diluted separately in 500 μl of Opti-MEM (Gibco), and each was mixed by vortexing. After 5-min incubation, the two tubes were combined and incubated for another 20 min. Prior to adding the transfection solution to the cells, the medium was replaced with 4 ml of Opti-MEM. The transfection solution was then added dropwise. After 3-h incubation, the medium was changed to 0.5% FBS-containing DMEM, and the cells were plated for cell survival experiments, as above.

[2] = test system: ubiquitin-overexpressing HEK 293 cells; assay: Cell survival in ubiquitin-overexpressing cells vs empty vector-transfected control cells; format: cell-based, human; conditions: 24-h treatment at IC50 of each compound (Myr 3 mM, DM 650 μM; puromycin 1 and 2 μM)
Protocol: as §1, §2

[3] = test system: HEK 293FT cells; assay: Cell survival, Alamar Blue (resazurin) assay; format: cell-based, human; conditions: 24-h treatment; for IC50: 2% DMSO, read-out: IC50 for inhibition of cell survival
Protocol: For cellular experiments, HEK 293FT cells (a fast-growing SV40 large T antigen-transformed strain of HEK 293 cells designed for enhanced transgene expression in transient transfections) were grown in growth medium consisting of Dulbecco’s modified Eagle’s medium (DMEM; Sigma-Aldrich), supplemented with 10% fetal bovine serum (FBS; Gibco) in a humified cell culture incubator at 37 °C with 5% CO2.
as §1

[4] = target: T1, Uba1 (Homo sapiens, UniProt P22314); assay: Uba1~ubiquitin thioester formation (Uba1, GST-ubiquitin, ATP; silver-stained gels); format: biochemical
T1 construct: His; host or cells: E. coli BL21(DE3)
T1 sequence (P22314 1-1058): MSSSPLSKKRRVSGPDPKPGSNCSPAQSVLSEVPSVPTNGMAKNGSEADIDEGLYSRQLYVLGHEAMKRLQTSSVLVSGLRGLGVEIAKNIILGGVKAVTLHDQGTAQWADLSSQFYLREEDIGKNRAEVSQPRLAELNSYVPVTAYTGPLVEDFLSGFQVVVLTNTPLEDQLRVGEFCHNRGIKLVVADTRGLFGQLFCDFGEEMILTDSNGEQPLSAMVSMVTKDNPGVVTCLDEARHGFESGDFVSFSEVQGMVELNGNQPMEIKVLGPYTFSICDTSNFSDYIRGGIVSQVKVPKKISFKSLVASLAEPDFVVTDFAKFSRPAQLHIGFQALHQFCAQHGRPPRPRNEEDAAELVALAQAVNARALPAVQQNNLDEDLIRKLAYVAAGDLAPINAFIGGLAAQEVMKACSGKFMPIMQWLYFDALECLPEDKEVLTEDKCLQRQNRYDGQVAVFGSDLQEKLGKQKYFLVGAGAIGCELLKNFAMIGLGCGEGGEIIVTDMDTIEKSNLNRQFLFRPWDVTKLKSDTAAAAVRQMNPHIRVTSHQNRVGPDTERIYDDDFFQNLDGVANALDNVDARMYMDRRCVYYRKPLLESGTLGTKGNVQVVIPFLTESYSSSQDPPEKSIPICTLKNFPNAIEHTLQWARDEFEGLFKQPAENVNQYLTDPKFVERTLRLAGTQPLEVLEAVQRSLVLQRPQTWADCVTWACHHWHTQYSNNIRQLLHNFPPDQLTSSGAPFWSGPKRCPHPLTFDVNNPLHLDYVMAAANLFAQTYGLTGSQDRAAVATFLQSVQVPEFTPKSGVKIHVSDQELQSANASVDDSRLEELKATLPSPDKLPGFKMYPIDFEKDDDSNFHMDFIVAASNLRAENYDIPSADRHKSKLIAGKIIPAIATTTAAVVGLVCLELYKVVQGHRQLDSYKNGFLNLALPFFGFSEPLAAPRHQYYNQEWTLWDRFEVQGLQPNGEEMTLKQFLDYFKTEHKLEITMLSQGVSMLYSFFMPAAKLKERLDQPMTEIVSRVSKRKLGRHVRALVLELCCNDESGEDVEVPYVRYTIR

[5] = target: T2, Rad6 (Homo sapiens, UniProt P63146); assay: Rad6~ubiquitin thioester formation by transfer from already formed Uba1~ubiquitin; format: biochemical; conditions: Rad6 preincubated with compound 15 min; 2% DMSO
T2 construct: FLAG; made in house
Protocol: The overall reaction was conducted in two separate steps: initial reaction of Uba1 with ubiquitin in the absence of compound, then mixing with Rad6 with compound to evaluate transfer of ubiquitin from already formed Uba1~ubiquitin to Rad6. The first reaction was conducted with 300 nM Uba1, 1 μM GST-ubiquitin, and 2 mM ATP in a buffer of 40 mM Tris-HCl, pH 7.5, 8 mM MgCl2, and 10% glycerol for 30 min at 25 °C to allow for charging of Uba1 with GST-ubiquitin incubations. […] The samples were then subjected to SDS-polyacrylamide gel electrophoresis under non-reducing conditions, silver staining, and quantitation of scanned images, as described above for the silver-staining-based Uba1~ubiquitin thioester formation assay.

[6] = target: T1, Uba1; assay: Reversibility: Uba1 preincubation, washout by centrifugal filtration, then PCNA ubiquitination; format: biochemical; conditions: 30 μM compound preincubated with Uba1 for 2 h, then washed out
Protocol: Samples were then transferred to YM-30 Microcon centrifugal concentrators (Merck Millipore), diluted in buffer (40 mM Tris-HCl, pH 7.5, 8 mM MgCl2, and 10% glycerol), then serially centrifuged with additions of buffer to the remaining retentate between each spin, for final dilutions of compounds to <0.05% of original concentrations. The resulting samples were then tested in PCNA ubiquitination reactions.

[7] = test system: HEK 293FT cells; assay: Cellular global ubiquitination with MG132, anti-ubiquitin Western blot; format: cell-based, human; conditions: EGCG 250 and 500 μM, 1 h total; MG132 50 μM for 30 min
Protocol: HEK 293FT cells were plated in 6-well plates at 8 × 10^5 cells/well in DMEM with 0.5% FBS. […] Cells were harvested, and whole-cell lysates were prepared in RIPA lysis buffer containing protease inhibitor cocktail ([…] from Sigma-Aldrich) and sonicated. Equivalent loadings of total protein for each treatment, as determined by Bradford assay of each extract sample, were subjected to electrophoresis on 8% SDS-polyacrylamide gels and Western blot analysis, probed with anti-ubiquitin antibody, then stripped and reprobed with anti-β-tubulin antibody.

[8] = test system: PCNA ubiquitination (RFC, Uba1, Rad6, Rad18, PCNA, ubiquitin); assay: Reconstituted PCNA ubiquitination cascade, Western blot quantitation; format: biochemical, human
Protocol: The PCNA loading and ubiquitination cascade was reconstituted in 96-well white round-bottom polypropylene plates (Greiner) in a buffer consisting of 40 mM Tris-HCl, pH 7.5, 8 mM MgCl2, and 10% glycerol with 2.5 nM nicked circular pUC19, 50 nM RFC, 50 nM Uba1, 250 nM Rad6–Rad18 dimer, 50 nM FLAG-PCNA, and 250 nM biotin-ubiquitin (final concentrations). Compounds were added to the samples, with preincubation for 15 min at 25 °C before addition of ATP to a final concentration of 2 mM (to initiate the reaction cascade), followed by incubation for 2 h at 25 °C. The reactions were then terminated by addition of EDTA to 20 mM for Alpha assays or Laemmli sample buffer for Western blot analyses. For Alpha assays, reaction mixtures were diluted in buffer containing streptavidin-conjugated donor beads and anti-FLAG antibody-conjugated acceptor beads in opaque white microplates under low-light conditions, as recommended by the Alpha bead manufacturer, PerkinElmer. The plates were read on a Tecan Spark microplate reader at 23 °C. For Western blot analyses, FLAG-PCNA was detected with anti-FLAG antibody, and quantitations from the Western blot images was performed with NIH ImageJ software[74] and then analyzed with GraphPad Prism software.

T2 sequence (P63146 whole entry): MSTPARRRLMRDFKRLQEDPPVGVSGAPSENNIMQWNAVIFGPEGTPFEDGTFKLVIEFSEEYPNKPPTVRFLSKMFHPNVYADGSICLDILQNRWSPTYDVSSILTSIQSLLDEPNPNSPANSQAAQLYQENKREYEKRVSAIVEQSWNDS

SMILES: O=C(O[C@@H]1Cc2c(O)cc(O)cc2O[C@@H]1c1cc(O)c(O)c(O)c1)c1cc(O)c(O)c(O)c1 [EGCG, (–)-Epigallocatechin-3-gallate]
- Effect of Uba1 overexpression on cell survival [1]: reduced sensitivity; also recorded: Protects
- Effect of ubiquitin overexpression on cell survival [2]: reduced sensitivity; also recorded: Protects
- Activity on cell viability / survival (in words) [3]: reduces the viability and growth; also recorded: inhibitory
- IC50 [3]: 220 µM
- IC50 ([3]; Homo sapiens, HEK293FT, 24 h): 220 µM
- Uba1~ubiquitin thioester formation, Uba1 alone preincubated with compound before ubiquitin and ATP ([4]; EGCG 10 μM, Myr 50 μM): complete inhibition
- Uba1~ubiquitin thioester formation, ubiquitin alone preincubated with compound before Uba1 and ATP ([4]; EGCG 10 μM, Myr 50 μM): did not
- Activity in the Uba1~ubiquitin thioester formation assay (in words) ([4]; up to 500 μM): inhibitory
- Formation of the Rad6~ubiquitin thioester conjugate [5]: does not inhibit
- Reversibility of inhibition of Uba1 and PCNA ubiquitination after washout [6]: reversible
- Accumulation of ubiquitin-conjugated protein species in response to MG132 (global cellular ubiquitination) [7]: inhibited
- IC50 ([8]; 15 min preincubation, 2 h with ATP, 2% DMSO, nonlinear regression, read-out: IC50 for inhibition of PCNA ubiquitination): 228 nM
- Activity in the PCNA ubiquitination assay (in words) ([8]; up to 500 μM): inhibitory
